The source of these data is ChEMBL document CHEMBL1201862, “PubChem BioAssay data set” (2004).

Among the test systems are NCI-H23; M14; OVCAR-4; NCI-H226; SN12C; NCI-H522; HT-29; HL-60; LXFL 529; SR; HCT-15; SW-620; SK-MEL-2; 786-0; HOP-92; MDA-MB-435; NCI/ADR-RES; MCF7; PC-3; MDA-MB-231.
Common to all, as to assay: NCI tumour cell line growth inhibition, 48 h

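Cells were grown in 96-well plates and exposed to each compound for 48 hours at five concentrations; endpoints were interpolated linearly between bracketing concentrations, or set to the highest concentration if not reached. The concentration for 50% growth inhibition is given as GI50.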 Active and inactive are the calls of the source. Rule as the data show it: active = GI50 up to about 1.1 µM and inactive = higher.

Regarding `OCCN(CCO)c1ncnc2c1sc(=S)n2-c1ccccc1`, the GI50 with NCI-H23, in the assay with M14, with OVCAR-4, in the assay on NCI-H226, with SN12C and in the assay on NCI-H522 was > 100 µM (inactive) each time. Moreover, the GI50 in the assay with HT-29 was > 100 µM (inactive); with HL-60, > 100 µM (inactive); in the assay on LXFL 529 it was > 100 µM (inactive); in the assay on SR it was > 100 µM (inactive); in the assay with HCT-15 it was above 100 µM; in the assay on SW-620, > 100 µM (inactive). The GI50 in the assay with SK-MEL-2, with 786-0 and in the assay with HOP-92 was > 100 µM (inactive) throughout.
For `C/C(=N\NC(=N)N)C(CN1CCOCC1)C(c1ccccc1)c1c(O)c2ccccc2oc1=O` (configuration not stated), the GI50 with NCI-H23 was 76.7 µM (inactive); in the assay with M14 it was > 100 µM (inactive); in the assay on OVCAR-4, 61.9 µM (inactive); in the assay on NCI-H226, > 100 µM (inactive); with SN12C it was > 100 µM (inactive); in the assay on NCI-H522, > 100 µM (inactive). In addition, the GI50 was > 100 µM (inactive) in the assay with HT-29; 49.1 µM (inactive) in the assay with HL-60; > 100 µM (inactive) in the assay on LXFL 529; 80 µM (inactive) with SR; above 100 µM in the assay on HCT-15; > 100 µM (inactive) in the assay with SW-620. Further, the GI50 in the assay with SK-MEL-2 is > 100 µM (inactive); in the assay with 786-0, > 100 µM (inactive); in the assay with HOP-92, 25.7 µM (inactive).
Consider `N#Cc1ccc(Nc2cnc3cc(N)ccc3n2)cc1`, for which the GI50 is > 100 µM (inactive) with NCI-H23; > 100 µM (inactive) with M14; > 100 µM (inactive) in the assay on OVCAR-4; > 100 µM (inactive) in the assay with NCI-H226; 89.1 µM (inactive) in the assay with SN12C; 48.2 µM (inactive) with NCI-H522. Besides, the GI50 is 50.5 µM (inactive) with HT-29; 14.9 µM (inactive) with HL-60; 59.7 µM (inactive) in the assay on LXFL 529; 44.4 µM (inactive) with SR; above 100 µM in the assay on HCT-15; > 100 µM (inactive) in the assay with SW-620. The GI50 in the assay on SK-MEL-2 was > 100 µM (inactive); in the assay with 786-0, 85.1 µM (inactive); with HOP-92 it was 54.5 µM (inactive).
On to `Cc1nc2c(n1CC(C)(C)C)C(=O)c1ccccc1C2=O`, for which the GI50 is > 100 µM (inactive) in the assay with NCI-H23; > 100 µM (inactive) in the assay on M14; > 100 µM (inactive) in the assay with OVCAR-4; > 100 µM (inactive) in the assay on NCI-H226; > 100 µM (inactive) in the assay on SN12C; 92.7 µM (inactive) in the assay on NCI-H522. Besides, the GI50 in the assay with HT-29 was 98.9 µM (inactive); in the assay with HL-60, 36.1 µM (inactive); in the assay on LXFL 529, > 100 µM (inactive); in the assay on SR, 97.7 µM (inactive); in the assay on HCT-15, above 100 µM; in the assay on SW-620, > 100 µM (inactive). In addition, the values for the GI50 with SK-MEL-2, in the assay with 786-0 and in the assay on HOP-92 were > 100 µM (inactive), > 100 µM (inactive) and 16.7 µM (inactive), respectively.
For the compound `CCOC(=O)NC(=O)c1cn(CCCOC(=O)CCCCCCCCC(=O)OCCCn2cc(C(=O)NC(=O)OCC)c(=O)n(C)c2=O)c(=O)n(C)c1=O`, the GI50 in the assay on NCI-H23, in the assay with MDA-MB-435, with NCI/ADR-RES, in the assay with M14, with OVCAR-4 and in the assay with NCI-H226 was > 100 µM (inactive) in each case. Also, the GI50 is > 100 µM (inactive) in the assay on SN12C; > 100 µM (inactive) in the assay on NCI-H522; > 100 µM (inactive) in the assay on HT-29; > 77.8 µM (inactive) with HL-60; > 100 µM (inactive) with LXFL 529; > 100 µM (inactive) with SR. Further, the GI50 in the assay on HCT-15 was above 100 µM; in the assay with SW-620 it was > 92 µM (inactive); in the assay on SK-MEL-2 it was 97.1 µM (inactive); with 786-0, > 76.6 µM (inactive); with HOP-92, > 59 µM (inactive); in the assay with MCF7, > 100 µM (inactive). Further, the GI50 with PC-3 was > 100 µM (inactive).
`Cc1nc2nnc(C)n2c2c1C(=O)Nc1ccccc1N2`: the GI50 in the assay with NCI-H23, with M14, in the assay with NCI-H226, in the assay with SN12C, in the assay on NCI-H522 and with HT-29 was > 100 µM (inactive) each time. The GI50 in the assay with HL-60, with LXFL 529, in the assay with SR, in the assay on SW-620, in the assay on SK-MEL-2 and with 786-0 was > 100 µM (inactive) in each case. Besides, the GI50 with HOP-92 is > 100 µM (inactive).
On to `NCCNc1cccc2ccccc12`, for which the GI50 with NCI-H23, in the assay with M14, in the assay with OVCAR-4, in the assay with NCI-H226, in the assay on SN12C and with NCI-H522 was > 100 µM (inactive) throughout. Moreover, the GI50 in the assay on HT-29 was > 100 µM (inactive); with HL-60 it was > 100 µM (inactive); in the assay on LXFL 529 it was > 100 µM (inactive); in the assay with SR, > 100 µM (inactive); with HCT-15, above 100 µM; in the assay with SW-620 it was > 100 µM (inactive). The GI50 with SK-MEL-2, in the assay with 786-0 and with HOP-92 was > 100 µM (inactive) throughout.
`CC1(O)CC2(O)C=CC3=C(C(=O)c4cccc(O)c4C3=O)C2(O)C(=O)C1O` (configuration not stated): the GI50 with NCI-H23 is 2.92 µM (inactive); in the assay on MDA-MB-435, 1.8 µM (inactive); in the assay with NCI/ADR-RES it was 7.83 µM (inactive); in the assay on M14, 1.37 µM (inactive); in the assay on OVCAR-4, 1.51 µM (inactive); in the assay with NCI-H226, 10.6 µM (inactive). Moreover, the GI50 in the assay on SN12C is 3.28 µM (inactive); with NCI-H522, 0.124 µM (active); in the assay with HT-29, 2.43 µM (inactive); in the assay with HL-60 it was 0.478 µM (active); with LXFL 529, 0.495 µM (active); with SR it was 2.3 µM (inactive). In addition, the GI50 with HCT-15 is 1.28 µM; in the assay with SW-620, 0.75 µM (active); with SK-MEL-2, 4.18 µM (inactive); in the assay with 786-0, 1.96 µM (inactive); in the assay on HOP-92 it was 1.07 µM (active); in the assay with MCF7, 0.624 µM (active). Moreover, the GI50 in the assay on PC-3 is 6 µM (inactive); in the assay with MDA-MB-231, 3.31 µM (inactive).
